# Measured values from US4100117A, “Somatostatin analogs and intermediates thereto” (Eli Lilly and Company, priority 1977, dated 1978).
# Where a SMILES comes first, the peptide text is derived from it. Bridges are numbered along the chain shown (N, C = ends). [ ]: non-standard residue; d: D form.
# Legend:
# [1] = test system: secretion from the pancreas induced by secretin and cholecystokinin; assay: inhibition of pancreatic secretion in dogs with pancreatic and total gastric fistula; assay type: in vivo, dog; details: three dogs; 0.75 μg/kg-hr. for one hour
# Method: In three dogs having both pancreatic and total gastric fistula, secretion from the pancreas was induced by infusion of secretin at 2 units/kg-hr. and cholecystokinin at 0.45 unit/kg-hr., and secretion of gastric HCl by infusion of tetragastrin at 0.5 μg/kg-hr. After a steady response was established, each dog received D-Val^1 -somatostatin for one hour at 0.75 μg/kg-hr. The peak inhibitory effect expressed as percent change over control for total protein was -51%
# [2] = test system: gastric HCl secretion induced by the C-terminal tetrapeptide of gastrin; assay: in vivo inhibition of gastric acid secretion in dogs with chronic fistula and Heidenhain pouch; design: species or system dog
# Method: D-Val^1 -somatostatin was tested in dogs for its in vivo inhibition of gastric acid secretion. In six dogs with chronic fistula and Heidenhain pouch, gastric HCl secretion was induced by infusion of the C-terminal tetrapeptide of gastrin at 0.5 μg/kg-hr. Each dog served as its own control, receiving on a separate day only the tetrapeptide. On another day, the six dogs received the tetrapeptide, and, after one hour of steady state secretion of HCl, D-Val^1 -somatostatin was infused at 0.75 μg/kg-hr. for one hour. Collection of gastric acid samples was continued for an additional 1.5 hours at 15 minute intervals. The samples were titrated to pH 7 with an automatic titrator. The maximal inhibitory effect of the D-Val^1 -somatostatin was extrapolated against the dose-response curve of somatostatin, and the relative potency of the analog to that of somatostatin is expressed as percent activity. D-Val^1 -somatostatin inhibited steady state acid secretion induced by the C-terminal tetrapeptide of gastrin by 85.1 ± 6.0% standard error of mean. This effect is equivalent to that of 0.935 μg/kg-hr. of somatostatin. Its activity relative to that of somatostatin thus is 125%.
# growth hormone secretion = assay: inhibition of pentobarbital-stimulated growth hormone release in rats; assay type: in vivo, rat; details: serum GH 20 minutes after dosing
# Method: D-Val^1 -somatostatin also was tested for its activity with respect to the release of growth hormone. The procedure which was employed is carried out using normal male SpragueDawley rats weighing 100-120 grams (Laboratory Supply Company, Indianapolis, Indiana). The test is a modification of the method of P. Brazeau, W. Vale, and R. Guilleman, Endocrinology, 94 184 (1974). In this assay, five groups of eight rats each were employed. Sodium pentobarbital was administered intraperitoneally to all of the rats to stimulate growth hormone secretion. One group served as the control and received only saline. Two of the groups received somatostatin, one at 2 μg./rat, subcutaneously, and the other at 50 μg./rat, subcutaneously. The other two groups received D-Val^1 -somatostatin, one at 2 μg./rat, subcutaneously, and the other at 50 μg./rat, subcutaneously. The serum concentration of growth hormone was measured 20 minutes after simultaneous administration of sodium pentobarbital and test compound. The degree of inhibition of serum growth hormone concentration then was determined with respect to the control group, and the relative activities of D-Val^1 -somatostatin and somatostatin itself were compared.
# [3] = test system: gut motility (pylorus, duodenum, antrum pressure); assay: action on gut motility in conscious dogs (intralumenal pressure); assay type: in vivo, dog; details: three conscious dogs; intravenous infusion over ten minutes
# Method: D-Val^1 -somatostatin also was tested for its action on gut motility in conscious dogs. Three dogs having intralumenal catheters placed in the antrum, duodenum, and pylorus were used. Pressure changes in the gut lumen were recorded on a Visicorder using strain gauges and miniature light beam galvanometers. After a steady state control was established, D-Val^1 -somatostatin was infused intravenously over a ten minute period. […] The minimum effective dose required to increase the pyloric pressure and to decrease the duodenum and antrum pressures was <0.125 μg./kg.-10 minutes. This compares to an activity for somatostatin itself of 0.125 to 0.25 μg./kg.-10 minutes.
structure (smiles),measurement,setting,value
CC(C)[C@@H](N)C(=O)NCC(=O)N[C@H]1CSSC[C@@H](C(=O)O)NC(=O)[C@H](CO)NC(=O)[C@H]([C@@H](C)O)NC(=O)[C@H](Cc2ccccc2)NC(=O)[C@H]([C@@H](C)O)NC(=O)[C@H](CCCCN)NC(=O)[C@H](Cc2c[nH]c3ccccc23)NC(=O)[C@H](Cc2ccccc2)NC(=O)[C@H](Cc2ccccc2)NC(=O)[C@H](CC(N)=O)NC(=O)[C@H](CCCCN)NC1=O [D-Val^1 -somatostatin] (H-[dV]GCKNFFWKTFTSC-OH; disulfide 3-14),peak inhibitory effect expressed as percent change over control for total protein,[1],-51%
same,equivalent dose of somatostatin giving the same effect,"[2]; extrapolated against the dose-response curve of somatostatin, analog at 0.75 μg/kg-hr.",0.935 μg/kg-hr.
same,activity relative to that of somatostatin,"[2]; gastric acid secretion, dogs",125%
same,inhibition of steady state acid secretion induced by the C-terminal tetrapeptide of gastrin,"[2]; six dogs, infused at 0.75 μg/kg-hr. for one hour, maximal inhibitory effect, ± standard error of mean",85.1 ± 6.0%
same,inhibition of the increase in growth hormone secretion over control,growth hormone secretion; 2 μg./rat subcutaneously,2%
same,inhibition of the increase in growth hormone secretion over control,growth hormone secretion; 50 μg./rat subcutaneously,73%
same,effect on intralumenal pressure,[3],initially increased the intralumenal pressure in the pylorus and then decreased it whereas the pressure in the duodenum and the antrum remained depressed throughout the test
same,minimum effective dose required to increase the pyloric pressure and to decrease the duodenum and antrum pressures,[3],< 0.125 μg./kg.-10 minutes
